According to PMC4774911, “Biochemical Screening of Five Protein Kinases from Plasmodium falciparum against 14,000 Cell-Active Compounds” (PLoS ONE, 2016):
pIC50: −log10 of the molar value. Where “and” joins values, the source holds several entries; their conditions need not be identical. Identical values can stand only once.

Key:
Experiment in all cases: biochemical
[1] = target: STK10 (Homo sapiens, UniProt O94804)
[2] = target: AAK1 (Homo sapiens, UniProt Q2M2I8)
[3] = target: CDK7 (Homo sapiens, UniProt P50613)
[4] = target: PRKCD (Homo sapiens, UniProt Q05655)
[5] = target: T1, STRADA (Homo sapiens, UniProt Q7RTN6)
T1 sequence (Q7RTN6 1-431): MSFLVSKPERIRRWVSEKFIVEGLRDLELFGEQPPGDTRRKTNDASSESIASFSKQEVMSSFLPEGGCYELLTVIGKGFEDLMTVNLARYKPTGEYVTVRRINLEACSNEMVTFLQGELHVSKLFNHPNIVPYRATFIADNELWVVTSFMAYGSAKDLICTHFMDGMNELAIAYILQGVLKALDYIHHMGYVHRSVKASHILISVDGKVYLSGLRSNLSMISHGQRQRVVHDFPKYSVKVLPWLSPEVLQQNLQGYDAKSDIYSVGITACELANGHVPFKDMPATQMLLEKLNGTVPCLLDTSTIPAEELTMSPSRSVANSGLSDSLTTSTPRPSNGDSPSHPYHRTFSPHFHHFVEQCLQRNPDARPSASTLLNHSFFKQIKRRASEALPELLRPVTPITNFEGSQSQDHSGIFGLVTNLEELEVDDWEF

[6] = target: T2, MAP2K5 (Homo sapiens, UniProt Q13163)
T2 sequence (Q13163 1-448): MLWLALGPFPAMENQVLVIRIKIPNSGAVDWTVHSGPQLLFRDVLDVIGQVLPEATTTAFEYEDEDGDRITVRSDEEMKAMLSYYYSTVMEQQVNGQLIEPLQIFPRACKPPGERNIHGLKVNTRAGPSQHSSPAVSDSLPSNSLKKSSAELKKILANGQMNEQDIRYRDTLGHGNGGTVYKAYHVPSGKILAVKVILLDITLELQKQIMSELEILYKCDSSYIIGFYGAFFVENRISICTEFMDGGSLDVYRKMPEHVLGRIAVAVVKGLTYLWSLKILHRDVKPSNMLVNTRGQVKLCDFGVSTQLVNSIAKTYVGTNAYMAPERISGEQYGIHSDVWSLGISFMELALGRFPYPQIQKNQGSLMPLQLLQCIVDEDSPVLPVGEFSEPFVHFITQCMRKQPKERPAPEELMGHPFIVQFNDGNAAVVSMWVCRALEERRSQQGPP

[7] = target: CSNK2A1 (Homo sapiens, UniProt P68400)
[8] = target: PIM2 (Homo sapiens, UniProt Q9P1W9)
[9] = target: T3, EPHB6 (Homo sapiens, UniProt O15197)
T3 sequence (O15197 1-1021): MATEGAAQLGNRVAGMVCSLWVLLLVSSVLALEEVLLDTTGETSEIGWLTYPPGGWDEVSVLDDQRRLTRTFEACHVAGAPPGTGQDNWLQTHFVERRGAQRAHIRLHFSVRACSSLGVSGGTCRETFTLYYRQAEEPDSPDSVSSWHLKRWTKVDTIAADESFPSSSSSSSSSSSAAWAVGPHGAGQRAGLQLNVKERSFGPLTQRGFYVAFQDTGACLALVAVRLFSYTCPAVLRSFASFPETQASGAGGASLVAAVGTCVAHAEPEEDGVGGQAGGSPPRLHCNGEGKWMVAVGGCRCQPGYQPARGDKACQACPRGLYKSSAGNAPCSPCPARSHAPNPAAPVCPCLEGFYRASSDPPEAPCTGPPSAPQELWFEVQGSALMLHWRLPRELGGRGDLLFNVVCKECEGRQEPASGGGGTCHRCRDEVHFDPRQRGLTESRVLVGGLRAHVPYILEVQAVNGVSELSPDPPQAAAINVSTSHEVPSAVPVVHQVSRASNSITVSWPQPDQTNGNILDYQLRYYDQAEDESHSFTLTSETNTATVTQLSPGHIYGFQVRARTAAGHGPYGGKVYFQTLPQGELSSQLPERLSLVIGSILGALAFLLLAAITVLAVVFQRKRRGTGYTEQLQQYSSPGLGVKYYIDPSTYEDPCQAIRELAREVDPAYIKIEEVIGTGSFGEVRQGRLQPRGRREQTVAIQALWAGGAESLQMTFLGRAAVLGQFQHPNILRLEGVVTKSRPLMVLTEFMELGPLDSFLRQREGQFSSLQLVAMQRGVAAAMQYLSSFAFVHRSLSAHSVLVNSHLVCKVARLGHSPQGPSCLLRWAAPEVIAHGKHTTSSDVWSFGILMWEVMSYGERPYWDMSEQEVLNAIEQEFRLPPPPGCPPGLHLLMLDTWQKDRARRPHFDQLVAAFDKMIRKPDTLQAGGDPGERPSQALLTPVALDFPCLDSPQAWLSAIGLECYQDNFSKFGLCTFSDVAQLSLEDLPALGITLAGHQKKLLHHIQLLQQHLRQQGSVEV

[10] = target: T4, ADCK1 (Homo sapiens, UniProt Q86TW2)
T4 sequence (Q86TW2 1-530): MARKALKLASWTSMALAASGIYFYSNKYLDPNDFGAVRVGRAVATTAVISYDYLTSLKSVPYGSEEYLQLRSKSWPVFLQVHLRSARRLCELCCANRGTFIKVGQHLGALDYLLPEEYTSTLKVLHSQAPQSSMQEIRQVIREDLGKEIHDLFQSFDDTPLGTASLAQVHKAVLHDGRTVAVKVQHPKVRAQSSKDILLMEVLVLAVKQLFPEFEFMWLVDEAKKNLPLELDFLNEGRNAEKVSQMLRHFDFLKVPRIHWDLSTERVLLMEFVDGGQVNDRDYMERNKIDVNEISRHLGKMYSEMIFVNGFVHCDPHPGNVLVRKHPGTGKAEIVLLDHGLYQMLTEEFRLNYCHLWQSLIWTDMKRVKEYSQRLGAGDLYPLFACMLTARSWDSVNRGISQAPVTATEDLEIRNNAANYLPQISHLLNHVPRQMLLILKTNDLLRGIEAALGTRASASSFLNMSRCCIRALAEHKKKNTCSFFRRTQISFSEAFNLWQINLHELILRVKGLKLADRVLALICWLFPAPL

Sequence of PIM2 (Q9P1W9 whole entry): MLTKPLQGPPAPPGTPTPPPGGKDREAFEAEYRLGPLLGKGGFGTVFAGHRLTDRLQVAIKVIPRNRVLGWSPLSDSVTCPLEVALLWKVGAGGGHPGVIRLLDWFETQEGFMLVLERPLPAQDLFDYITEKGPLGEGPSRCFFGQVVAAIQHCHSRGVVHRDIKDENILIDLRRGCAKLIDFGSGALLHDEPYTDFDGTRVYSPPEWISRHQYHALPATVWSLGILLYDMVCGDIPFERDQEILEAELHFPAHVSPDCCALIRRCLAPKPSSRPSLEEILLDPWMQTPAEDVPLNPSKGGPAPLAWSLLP
Sequence of CSNK2A1 (P68400 whole entry): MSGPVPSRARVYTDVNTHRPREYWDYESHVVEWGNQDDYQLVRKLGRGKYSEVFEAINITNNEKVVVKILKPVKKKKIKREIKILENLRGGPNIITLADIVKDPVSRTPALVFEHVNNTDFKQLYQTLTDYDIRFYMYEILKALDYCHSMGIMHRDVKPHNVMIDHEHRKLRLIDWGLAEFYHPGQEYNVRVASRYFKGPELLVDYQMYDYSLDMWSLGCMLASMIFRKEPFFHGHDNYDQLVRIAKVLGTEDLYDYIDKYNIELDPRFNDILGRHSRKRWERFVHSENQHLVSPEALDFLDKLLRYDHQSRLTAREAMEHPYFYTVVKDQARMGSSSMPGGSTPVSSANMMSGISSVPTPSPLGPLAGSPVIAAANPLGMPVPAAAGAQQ
Sequence of PRKCD (Q05655 whole entry): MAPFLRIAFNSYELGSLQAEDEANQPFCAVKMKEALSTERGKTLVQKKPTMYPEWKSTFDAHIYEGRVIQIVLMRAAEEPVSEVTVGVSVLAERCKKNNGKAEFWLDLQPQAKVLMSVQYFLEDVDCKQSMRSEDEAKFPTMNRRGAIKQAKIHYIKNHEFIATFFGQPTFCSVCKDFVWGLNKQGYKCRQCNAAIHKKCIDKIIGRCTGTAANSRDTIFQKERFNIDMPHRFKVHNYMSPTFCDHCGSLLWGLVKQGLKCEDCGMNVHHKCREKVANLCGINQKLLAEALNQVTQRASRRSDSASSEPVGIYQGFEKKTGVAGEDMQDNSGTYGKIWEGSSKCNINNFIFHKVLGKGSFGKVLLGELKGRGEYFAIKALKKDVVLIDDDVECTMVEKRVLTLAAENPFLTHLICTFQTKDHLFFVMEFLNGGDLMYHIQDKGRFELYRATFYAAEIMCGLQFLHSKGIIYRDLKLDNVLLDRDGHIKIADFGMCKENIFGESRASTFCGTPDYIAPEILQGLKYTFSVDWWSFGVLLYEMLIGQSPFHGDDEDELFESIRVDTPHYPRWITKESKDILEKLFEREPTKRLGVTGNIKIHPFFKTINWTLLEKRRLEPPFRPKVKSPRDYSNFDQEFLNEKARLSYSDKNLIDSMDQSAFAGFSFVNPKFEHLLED
Sequence of CDK7 (P50613 whole entry): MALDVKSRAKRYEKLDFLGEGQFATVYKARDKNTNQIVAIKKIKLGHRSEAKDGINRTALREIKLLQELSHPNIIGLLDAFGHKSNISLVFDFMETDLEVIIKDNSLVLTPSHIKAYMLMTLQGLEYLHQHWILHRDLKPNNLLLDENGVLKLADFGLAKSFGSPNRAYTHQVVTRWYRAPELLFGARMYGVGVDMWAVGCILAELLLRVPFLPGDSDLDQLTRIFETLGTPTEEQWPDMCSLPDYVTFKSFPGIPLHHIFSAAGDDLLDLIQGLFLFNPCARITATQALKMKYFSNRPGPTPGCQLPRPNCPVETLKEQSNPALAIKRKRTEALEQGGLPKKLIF
Sequence of AAK1 (Q2M2I8 whole entry): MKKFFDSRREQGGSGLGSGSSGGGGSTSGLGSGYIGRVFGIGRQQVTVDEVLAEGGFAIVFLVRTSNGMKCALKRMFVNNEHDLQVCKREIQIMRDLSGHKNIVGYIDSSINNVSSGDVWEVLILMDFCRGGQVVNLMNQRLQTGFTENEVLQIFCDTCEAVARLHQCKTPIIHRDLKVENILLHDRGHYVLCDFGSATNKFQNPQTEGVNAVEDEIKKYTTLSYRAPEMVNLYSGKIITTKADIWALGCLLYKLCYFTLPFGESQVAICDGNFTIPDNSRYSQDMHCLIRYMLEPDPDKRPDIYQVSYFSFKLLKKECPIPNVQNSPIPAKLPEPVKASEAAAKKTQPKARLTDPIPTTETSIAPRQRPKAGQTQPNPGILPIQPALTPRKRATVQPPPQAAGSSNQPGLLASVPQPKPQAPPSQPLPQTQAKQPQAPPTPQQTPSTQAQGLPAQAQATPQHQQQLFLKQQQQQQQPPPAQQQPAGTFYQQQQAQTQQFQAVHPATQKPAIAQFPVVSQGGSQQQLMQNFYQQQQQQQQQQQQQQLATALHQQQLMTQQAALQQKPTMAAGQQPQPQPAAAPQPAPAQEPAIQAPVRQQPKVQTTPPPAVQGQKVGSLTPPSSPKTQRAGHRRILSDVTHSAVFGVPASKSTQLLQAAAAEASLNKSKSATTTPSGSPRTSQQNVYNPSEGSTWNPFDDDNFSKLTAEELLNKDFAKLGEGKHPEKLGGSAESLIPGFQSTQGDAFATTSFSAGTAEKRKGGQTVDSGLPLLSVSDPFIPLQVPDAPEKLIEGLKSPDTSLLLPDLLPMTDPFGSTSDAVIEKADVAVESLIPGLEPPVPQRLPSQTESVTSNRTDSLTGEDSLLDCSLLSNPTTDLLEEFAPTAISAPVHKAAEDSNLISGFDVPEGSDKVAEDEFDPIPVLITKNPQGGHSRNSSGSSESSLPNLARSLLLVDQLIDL
Sequence of STK10 (O94804 whole entry): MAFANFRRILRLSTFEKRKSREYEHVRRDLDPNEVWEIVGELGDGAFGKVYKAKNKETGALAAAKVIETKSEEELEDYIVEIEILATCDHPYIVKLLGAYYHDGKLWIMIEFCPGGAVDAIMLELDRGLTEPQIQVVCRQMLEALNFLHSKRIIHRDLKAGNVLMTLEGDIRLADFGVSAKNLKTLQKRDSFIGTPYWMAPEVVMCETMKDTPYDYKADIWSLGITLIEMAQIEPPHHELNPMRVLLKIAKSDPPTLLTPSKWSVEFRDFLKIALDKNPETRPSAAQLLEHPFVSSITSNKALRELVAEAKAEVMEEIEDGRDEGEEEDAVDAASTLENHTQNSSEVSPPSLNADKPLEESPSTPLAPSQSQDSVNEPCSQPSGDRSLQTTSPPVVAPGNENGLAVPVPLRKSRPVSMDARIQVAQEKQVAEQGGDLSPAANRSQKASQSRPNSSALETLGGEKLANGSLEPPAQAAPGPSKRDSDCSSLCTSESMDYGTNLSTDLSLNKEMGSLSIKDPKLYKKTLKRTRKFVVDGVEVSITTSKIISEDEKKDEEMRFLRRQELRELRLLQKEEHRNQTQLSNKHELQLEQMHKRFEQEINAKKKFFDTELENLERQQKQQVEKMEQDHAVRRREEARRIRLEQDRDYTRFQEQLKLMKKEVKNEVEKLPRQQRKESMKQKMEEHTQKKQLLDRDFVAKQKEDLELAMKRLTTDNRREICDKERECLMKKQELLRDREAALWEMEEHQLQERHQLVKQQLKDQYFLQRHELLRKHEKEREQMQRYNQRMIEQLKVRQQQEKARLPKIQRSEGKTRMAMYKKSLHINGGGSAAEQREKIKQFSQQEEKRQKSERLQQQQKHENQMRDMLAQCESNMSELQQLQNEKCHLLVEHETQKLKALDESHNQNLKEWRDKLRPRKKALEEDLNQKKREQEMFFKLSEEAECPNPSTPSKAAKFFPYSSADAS

SMILES	pIC50 [1]	pIC50 [2]	pIC50 [3]	pIC50 [4]	pIC50 [5]	pIC50 [6]	pIC50 [7]	pIC50 [8]	pIC50 [9]	pIC50 [10]
CN(C)CC(O)COc1ccc(Nc2ncc([N+](=O)[O-])c(Nc3ccccc3O)n2)cc1.O=C(O)C(F)(F)F (stereo not drawn) [TCMDC-141399]	5.20	< 4.70	5.74 and 5.24	< 4.70	< 4.70	< 4.70	7.04	< 4.70	< 4.70	5.74
Cl.NCC1(c2nc(-c3ccc(Cl)c(O)c3)c(-c3ccncc3)[nH]2)CCCCC1 [TCMDC-141154]	7.24	< 4.70	< 4.70	6.00	< 4.70	6.06	< 4.70	< 4.70	< 4.70	< 4.70
CN1CCN(c2ccc(Nc3ncc(C#N)c(Nc4ccccc4C(N)=O)n3)cc2)CC1.Cl [TCMDC-134116]	7.32 and 7.03	6.72	6.28 and 6.21	6.07	< 4.70	6.40 and 6.28	≥ 7.49 and 7.47	5.32	< 4.70	6.00
